Experimental data taken from the supplement of paper PMC10307832.

Legend:
Experiment in all cases: relative viability (nuclei count vs DMSO), 5 days (fraction); higher = more cells survive
Bemcentinib + Alpelisib = compound: Nc1nc(Nc2ccc3c(c2)CC[C@@H](N2CCCC2)CC3)nn1-c1cc2c(nn1)-c1ccccc1CCC2 [Bemcentinib] + Cc1nc(NC(=O)N2CCC[C@H]2C(N)=O)sc1-c1ccnc(C(C)(C)C(F)(F)F)c1 [Alpelisib] (partner 2 µM)
Outline: (§1)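 Lung cancer cell lines in 1536-well plates got either a single drug or a fixed anchor-drug dose together with five library-drug doses (not always all listed) in √10 steps, by pin tool, on the day after seeding. Nuclei were counted after 5 days, and relative viability is the treated-to-vehicle ratio of nuclei counts. Values are medians of duplicate plates.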

Bemcentinib + OSI-027 = compound: Nc1nc(Nc2ccc3c(c2)CC[C@@H](N2CCCC2)CC3)nn1-c1cc2c(nn1)-c1ccccc1CCC2 [Bemcentinib] + COc1cccc2cc(-c3nc([C@H]4CC[C@H](C(=O)O)CC4)n4ncnc(N)c34)[nH]c12 [OSI-027] (partner 0.5 µM)
Outline: as §1

Bemcentinib + Crizotinib = compound: Nc1nc(Nc2ccc3c(c2)CC[C@@H](N2CCCC2)CC3)nn1-c1cc2c(nn1)-c1ccccc1CCC2 [Bemcentinib] + C[C@@H](Oc1cc(-c2cnn(C3CCNCC3)c2)cnc1N)c1c(Cl)ccc(F)c1Cl [Crizotinib] (partner 1 µM)
Outline: as §1

Bemcentinib + Foretinib = compound: Nc1nc(Nc2ccc3c(c2)CC[C@@H](N2CCCC2)CC3)nn1-c1cc2c(nn1)-c1ccccc1CCC2 [Bemcentinib] + COc1cc2c(Oc3ccc(NC(=O)C4(C(=O)Nc5ccc(F)cc5)CC4)cc3F)ccnc2cc1OCCCN1CCOCC1 [Foretinib] (partner 0.25 µM)
Outline: as §1

| Cell Line | relative viability (Bemcentinib + Alpelisib; first compound 0.04 µM) | relative viability (Bemcentinib + Alpelisib; first compound 0.1265 µM) | relative viability (Bemcentinib + Alpelisib; first compound 0.4 µM) | relative viability (Bemcentinib + Alpelisib; first compound 1.265 µM) | relative viability (Bemcentinib + Alpelisib; first compound 4 µM) | relative viability (Bemcentinib + OSI-027; first compound 0.04 µM) | relative viability (Bemcentinib + OSI-027; first compound 0.1265 µM) | relative viability (Bemcentinib + OSI-027; first compound 0.4 µM) | relative viability (Bemcentinib + OSI-027; first compound 1.265 µM) | relative viability (Bemcentinib + OSI-027; first compound 4 µM) | relative viability (Bemcentinib + Crizotinib; first compound 0.04 µM) | relative viability (Bemcentinib + Crizotinib; first compound 0.1265 µM) | relative viability (Bemcentinib + Crizotinib; first compound 0.4 µM) | relative viability (Bemcentinib + Crizotinib; first compound 1.265 µM) | relative viability (Bemcentinib + Crizotinib; first compound 4 µM) | relative viability (Bemcentinib + Foretinib; first compound 0.04 µM) | relative viability (Bemcentinib + Foretinib; first compound 0.1265 µM) | relative viability (Bemcentinib + Foretinib; first compound 0.4 µM) | relative viability (Bemcentinib + Foretinib; first compound 1.265 µM) | relative viability (Bemcentinib + Foretinib; first compound 4 µM) |
| --- | --- | --- | --- | --- | --- | --- | --- | --- | --- | --- | --- | --- | --- | --- | --- | --- | --- | --- | --- | --- |
| NCI-H661 | 0.374 | 0.821 | 0.624 | 0.358 | 0.599 | 0.716 | 0.719 | 0.762 | 0.775 | 0.745 | 0.878 | 0.947 | 0.852 | 0.998 | 1.02 | 0.969 | 1.04 | 1.01 | 0.981 | 0.986 |
| NCI-H727 | 0.528 | 0.576 | 0.492 | 0.491 | 0.621 | 0.552 | 0.631 | 0.645 | 0.592 | 0.576 | 0.666 | 1.08 | 0.743 | 0.801 | 0.817 | 0.881 | 1.09 | 0.935 | 0.88 | 1.03 |
| NCI-H838 | 0.961 | 1.19 | 1.08 | 1.01 | 1.04 | 0.38 | 0.434 | 0.371 | 0.442 | 0.372 | 0.805 | 0.958 | 0.906 | 0.893 | 0.869 | 1.05 | 1.15 | 1.21 | 1.11 | 1.18 |
| NCI-H1355 | 0.905 | 0.915 | 0.778 | 0.902 | 0.965 | 0.379 | 0.412 | 0.46 | 0.399 | 0.44 | 1.08 | 1.18 | 1.07 | 1.14 | 1.17 | 0.958 | 1.12 | 1.03 | 1.04 | 0.98 |
| NCI-H1437 | 0.961 | 1.03 | 1.16 | 1.01 | 1.01 | 0.884 | 0.845 | 0.995 | 0.961 | 0.915 | 0.931 | 1.04 | 0.972 | 0.984 | 0.967 | 1.28 | 1.26 | 1.33 | 1.21 | 1.3 |
| NCI-H1563 | 0.93 | 1.07 | 0.943 | 0.926 | 0.839 | 0.783 | 0.812 | 0.819 | 0.766 | 0.757 | 0.79 | 0.759 | 0.81 | 0.849 | 0.89 | 0.998 | 0.999 | 0.975 | 0.897 | 0.949 |
| NCI-H1651 | 0.935 | 1.01 | 1.12 | 0.964 | 1.02 | 0.771 | 0.811 | 0.738 | 0.741 | 0.74 | 0.886 | 0.882 | 0.873 | 0.905 | 0.878 | 0.824 | 0.928 | 0.812 | 0.856 | 1.14 |
| NCI-H1666 | 0.869 | 1.05 | 0.941 | 1.02 | 1.02 | 0.82 | 0.991 | 0.883 | 0.885 | 0.923 | 1.01 | 0.889 | 0.963 | 0.861 | 0.89 | 0.959 | 1.26 | 1.06 | 0.856 | 0.911 |
